Tests used:
[1] = target: Beta-1 adrenergic receptor (Homo sapiens, UniProt P08588); experiment: DRUGMATRIX: Adrenergic beta1 radioligand binding (ligand: [125I] Cyanopindolol); assay type: cell membranes, CHO-K1, Membrane; details: cho-k1; Not Active = under 50% inhibition at 10 µM
[2] = target: Aldo-keto reductase family 1 member B1 (Rattus norvegicus, UniProt P07943); assay type: tissue-based, Lens of camera-type eye;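 further: inhibition of aldose reductase enzyme activity, measured with DL-glyceraldehyde as the substrate; in other assays of this panel Not Active means under 50% inhibition at 10 µM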
[3] = DRUGMATRIX: Sigma2 radioligand binding (ligand: [3H] Ifenprodil); assay type: cell membranes, Rattus norvegicus, Wistar, Brain, Membrane; details: Not Active = under 50% inhibition at 10 µM
[4] = target: T1, Neuropeptide Y receptor type 1 (Homo sapiens, UniProt P25929); assay type: cell membranes, Membrane; details: sk-n-mc; further: in other assays of this panel Not Active means under 50% inhibition at 10 µM
T1 sequence (P25929 whole entry): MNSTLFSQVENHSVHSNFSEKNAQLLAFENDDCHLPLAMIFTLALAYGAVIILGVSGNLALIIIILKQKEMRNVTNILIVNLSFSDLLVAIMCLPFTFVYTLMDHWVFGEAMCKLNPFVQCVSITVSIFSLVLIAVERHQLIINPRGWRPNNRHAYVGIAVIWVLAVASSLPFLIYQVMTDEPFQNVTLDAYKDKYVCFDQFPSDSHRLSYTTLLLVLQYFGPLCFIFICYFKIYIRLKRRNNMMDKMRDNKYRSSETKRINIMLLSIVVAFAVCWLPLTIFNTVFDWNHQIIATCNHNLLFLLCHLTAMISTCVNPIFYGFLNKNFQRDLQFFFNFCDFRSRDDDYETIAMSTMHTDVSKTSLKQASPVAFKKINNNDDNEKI

[5] = target: T2, Neuropeptide Y receptor type 2 (Homo sapiens, UniProt P49146); assay type: cell membranes, KAN-TS, Membrane; details: kan-ts; further: in other assays of this panel Not Active means under 50% inhibition at 10 µM
T2 sequence (P49146 whole entry): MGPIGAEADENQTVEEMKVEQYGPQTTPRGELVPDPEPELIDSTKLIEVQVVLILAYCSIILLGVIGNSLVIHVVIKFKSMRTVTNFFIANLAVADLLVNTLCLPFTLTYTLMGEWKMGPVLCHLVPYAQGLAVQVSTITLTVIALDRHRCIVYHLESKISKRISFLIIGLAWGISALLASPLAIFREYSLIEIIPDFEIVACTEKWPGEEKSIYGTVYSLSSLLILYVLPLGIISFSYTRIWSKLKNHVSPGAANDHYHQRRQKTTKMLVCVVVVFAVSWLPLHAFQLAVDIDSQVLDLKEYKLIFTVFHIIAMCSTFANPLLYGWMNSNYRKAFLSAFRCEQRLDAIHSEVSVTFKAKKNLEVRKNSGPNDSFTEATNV

[6] = target: Tyrosine-protein kinase Fyn (Homo sapiens, UniProt P06241); experiment: biochemical; assay type: cell-based, Insect cells; details: insect cells;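 further: enzymatic inhibition of Fyn kinase activity measured with Poly(Glu:Tyr) as the phosphorylation substrate; in other assays of this panel Not Active means under 50% inhibition at 10 µM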
Chain of Tyrosine-protein kinase Fyn (P06241 whole entry): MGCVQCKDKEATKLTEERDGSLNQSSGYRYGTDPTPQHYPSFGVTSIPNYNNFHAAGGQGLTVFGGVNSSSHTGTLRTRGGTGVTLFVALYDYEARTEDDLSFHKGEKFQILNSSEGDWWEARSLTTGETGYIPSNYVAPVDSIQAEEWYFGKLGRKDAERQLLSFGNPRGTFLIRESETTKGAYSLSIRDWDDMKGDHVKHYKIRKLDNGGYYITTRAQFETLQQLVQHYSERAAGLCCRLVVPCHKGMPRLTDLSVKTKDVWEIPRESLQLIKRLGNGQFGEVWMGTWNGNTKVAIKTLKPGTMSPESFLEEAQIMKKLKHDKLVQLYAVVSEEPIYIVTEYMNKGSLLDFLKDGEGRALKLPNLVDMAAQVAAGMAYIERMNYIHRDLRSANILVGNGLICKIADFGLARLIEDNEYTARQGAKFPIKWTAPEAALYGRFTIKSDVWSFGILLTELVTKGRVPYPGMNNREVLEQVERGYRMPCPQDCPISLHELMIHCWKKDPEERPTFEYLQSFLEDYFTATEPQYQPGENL

Cytochrome P450 2C19 = Cytochrome P450 2C19 (Homo sapiens, UniProt P33261); details: bti-tn-5b1-4; further: in other assays of this panel Not Active means under 50% inhibition at 10 µM
Chain of Cytochrome P450 2C19 (P33261 whole entry): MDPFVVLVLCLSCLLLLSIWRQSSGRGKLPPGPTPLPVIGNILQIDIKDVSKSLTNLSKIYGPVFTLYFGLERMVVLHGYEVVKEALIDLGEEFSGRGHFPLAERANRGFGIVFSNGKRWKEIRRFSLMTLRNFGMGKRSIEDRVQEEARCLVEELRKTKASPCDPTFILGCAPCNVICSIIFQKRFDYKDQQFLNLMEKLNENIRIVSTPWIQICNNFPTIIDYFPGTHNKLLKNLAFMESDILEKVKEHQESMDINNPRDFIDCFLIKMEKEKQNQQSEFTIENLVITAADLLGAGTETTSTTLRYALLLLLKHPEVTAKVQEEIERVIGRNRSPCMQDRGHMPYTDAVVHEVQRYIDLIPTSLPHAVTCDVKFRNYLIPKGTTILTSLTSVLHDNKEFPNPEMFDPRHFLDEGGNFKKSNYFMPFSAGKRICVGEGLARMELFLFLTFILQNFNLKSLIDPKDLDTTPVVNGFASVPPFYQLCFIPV

Chain of Beta-1 adrenergic receptor (P08588 whole entry): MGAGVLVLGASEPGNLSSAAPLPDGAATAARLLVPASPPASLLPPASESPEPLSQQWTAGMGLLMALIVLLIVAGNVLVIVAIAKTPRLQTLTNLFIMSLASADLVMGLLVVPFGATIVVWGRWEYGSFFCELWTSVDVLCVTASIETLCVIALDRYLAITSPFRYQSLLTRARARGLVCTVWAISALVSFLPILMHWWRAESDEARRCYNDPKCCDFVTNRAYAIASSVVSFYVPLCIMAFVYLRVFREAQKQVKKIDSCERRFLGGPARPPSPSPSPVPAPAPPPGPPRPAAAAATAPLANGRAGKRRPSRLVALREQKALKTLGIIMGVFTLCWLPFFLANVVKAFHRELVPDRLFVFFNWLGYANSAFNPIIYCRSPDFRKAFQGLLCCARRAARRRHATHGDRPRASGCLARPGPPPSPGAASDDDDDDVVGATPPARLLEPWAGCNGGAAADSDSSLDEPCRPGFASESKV

Question: For `CCCCOc1cc(CC2CNC(=O)N2)ccc1OC` (stereo not drawn) [RO-201724], which IC50 [1] is on record?
Answer: Not Active

Question: And the IC50 [2]?
Answer: Not Active

Question: And the IC50 [3]?
Answer: Not Active

Question: And the Ki [3]?
Answer: Not Active

Question: What about the IC50 [4] of the same molecule?
Answer: Not Active

Question: And the IC50 [5]?
Answer: Not Active

Question: What about the IC50 [6] of the same molecule?
Answer: Not Active

Question: What about the IC50 (Cytochrome P450 2C19) of the same molecule?
Answer: Not Active

Question: And the Ki (Cytochrome P450 2C19)?
Answer: Not Active

Question: For `CC[C@@H](C(=O)[C@@H](C)[C@@H](O)[C@H](C)[C@@H]1O[C@@H]([C@@H](CC)C(=O)O)CC[C@@H]1C)[C@H]1O[C@]2(C=C[C@@H](O)[C@]3(CC[C@@](C)([C@H]4CC[C@](O)(CC)[C@H](C)O4)O3)O2)[C@H](C)C[C@@H]1C` [SALINOMYCIN], which IC50 [1] is on record?
Answer: Not Active

Question: What about the IC50 [2] of the same molecule?
Answer: Not Active

Question: And the IC50 [3]?
Answer: Not Active

Question: What about the Ki [3] of the same molecule?
Answer: Not Active

Question: What about the IC50 [4] of the same molecule?
Answer: Not Active

Question: And the IC50 [5]?
Answer: Not Active

Question: What about the IC50 [6] of the same molecule?
Answer: Not Active

Question: What about the IC50 (Cytochrome P450 2C19) of the same molecule?
Answer: Not Active

Question: What about the Ki (Cytochrome P450 2C19) of the same molecule?
Answer: Not Active

Question: Which results are given for `O=C(Oc1ccccc1C(=O)O)c1ccccc1O` [SALSALATE]?
Answer: IC50 [1]: Not Active; IC50 [2]: Not Active; IC50 [3]: Not Active; Ki [3]: Not Active; IC50 [4]: Not Active; IC50 [5]: Not Active; IC50 [6]: Not Active; IC50 (Cytochrome P450 2C19): Not Active; Ki (Cytochrome P450 2C19): Not Active

Question: What does the source list for `O=C(O)c1cn(-c2ccc(F)cc2)c2cc(N3CCNCC3)c(F)cc2c1=O` [SARAFLOXACIN]?
Answer: IC50 [1]: Not Active; IC50 [2]: Not Active; IC50 [3]: Not Active; Ki [3]: Not Active; IC50 [4]: Not Active; IC50 [5]: Not Active; IC50 [6]: Not Active; IC50 (Cytochrome P450 2C19): Not Active; Ki (Cytochrome P450 2C19): Not Active

Question: For `O.O.O.O.O.O.[Cl-].[Cl-].[Sr+2]` [STRONTIUM CHLORIDE HEXAHYDRATE], which IC50 [1] is on record?
Answer: Not Active

Question: What about the IC50 [2] of the same molecule?
Answer: Not Active

Question: What about the IC50 [3] of the same molecule?
Answer: Not Active

Question: And the Ki [3]?
Answer: Not Active

Question: And the IC50 [4]?
Answer: Not Active

Question: What about the IC50 [5] of the same molecule?
Answer: Not Active

Question: What about the IC50 [6] of the same molecule?
Answer: Not Active

Question: And the IC50 (Cytochrome P450 2C19)?
Answer: Not Active

Question: And the Ki (Cytochrome P450 2C19)?
Answer: Not Active

Question: Which IC50 [1] does the source give for `O=C1C(CC[S+]([O-])c2ccccc2)C(=O)N(c2ccccc2)N1c1ccccc1` (stereo not drawn) [SULFINPYRAZONE] here?
Answer: Not Active

Question: What about the IC50 [2] of the same molecule?
Answer: Not Active

Question: And the IC50 [3]?
Answer: Not Active

Question: And the Ki [3]?
Answer: Not Active

Question: And the IC50 [4]?
Answer: Not Active

Question: And the IC50 [5]?
Answer: Not Active

Question: What about the IC50 [6] of the same molecule?
Answer: Not Active

Question: And the IC50 (Cytochrome P450 2C19)?
Answer: Not Active

Question: And the Ki (Cytochrome P450 2C19)?
Answer: Not Active

Question: With `NC(=O)N1C(=O)/C(=C(\O)c2cccs2)c2cc(Cl)ccc21` [TENIDAP] as the molecule, how does the IC50 [1] read?
Answer: Not Active

Question: What about the IC50 [2] of the same molecule?
Answer: Not Active

Question: What about the IC50 [3] of the same molecule?
Answer: Not Active

Question: And the Ki [3]?
Answer: Not Active

Question: And the IC50 [4]?
Answer: Not Active

Question: What about the IC50 [5] of the same molecule?
Answer: Not Active

Question: What about the IC50 [6] of the same molecule?
Answer: Not Active

Question: What about the IC50 (Cytochrome P450 2C19) of the same molecule?
Answer: Not Active

Question: What about the Ki (Cytochrome P450 2C19) of the same molecule?
Answer: Not Active

Question: For `COc1cc2nc(N3CCN(C(=O)C4CCCO4)CC3)nc(N)c2cc1OC` (stereo not drawn) [TERAZOSIN], which IC50 [1] is on record?
Answer: Not Active

Question: What about the IC50 [2] of the same molecule?
Answer: Not Active

Question: What about the IC50 [3] of the same molecule?
Answer: Not Active

Question: What about the Ki [3] of the same molecule?
Answer: Not Active

Question: And the IC50 [4]?
Answer: Not Active

Question: And the IC50 [5]?
Answer: Not Active

Question: And the IC50 [6]?
Answer: Not Active

Question: And the IC50 (Cytochrome P450 2C19)?
Answer: Not Active

Question: What about the Ki (Cytochrome P450 2C19) of the same molecule?
Answer: Not Active

Question: Which IC50 [1] does the source give for `CN(C/C=C/C#CC(C)(C)C)Cc1cccc2ccccc12` [TERBINAFINE] here?
Answer: Not Active

Question: And the IC50 [2]?
Answer: Not Active

Question: What about the IC50 ([3]; read-out: IC50) of the same molecule?
Answer: 35.4 nM

Question: And the Ki ([3]; read-out: Ki)?
Answer: 21.8 nM

Question: And the IC50 [4]?
Answer: Not Active

Question: What about the IC50 [5] of the same molecule?
Answer: Not Active

Question: And the IC50 [6]?
Answer: Not Active

Question: What about the IC50 (Cytochrome P450 2C19) of the same molecule?
Answer: Not Active

Question: What about the Ki (Cytochrome P450 2C19) of the same molecule?
Answer: Not Active

Question: What does the source list for `Cn1c(=O)c2nc[nH]c2n(C)c1=O.O` [THEOPHYLLINE]?
Answer: IC50 [1]: Not Active; IC50 [2]: Not Active; IC50 [3]: Not Active; Ki [3]: Not Active; IC50 [4]: Not Active; IC50 [5]: Not Active; IC50 [6]: Not Active; IC50 (Cytochrome P450 2C19): Not Active; Ki (Cytochrome P450 2C19): Not Active

Question: With `CS(=O)(=O)c1ccc([C@@H](O)[C@@H](CO)NC(=O)C(Cl)Cl)cc1` [THIAMPHENICOL] as the molecule, how does the IC50 [1] read?
Answer: Not Active

Question: What about the IC50 [2] of the same molecule?
Answer: Not Active

Question: What about the IC50 [3] of the same molecule?
Answer: Not Active

Question: What about the Ki [3] of the same molecule?
Answer: Not Active

Question: And the IC50 [4]?
Answer: Not Active

Question: What about the IC50 [5] of the same molecule?
Answer: Not Active

Question: What about the IC50 [6] of the same molecule?
Answer: Not Active

Question: And the IC50 (Cytochrome P450 2C19)?
Answer: Not Active

Question: What about the Ki (Cytochrome P450 2C19) of the same molecule?
Answer: Not Active

Question: For `CCN(CC)CCNC(=O)c1cc(S(C)(=O)=O)ccc1OC` [TIAPRIDE], which IC50 [1] is on record?
Answer: Not Active

Question: And the IC50 [2]?
Answer: Not Active

Question: What about the IC50 [3] of the same molecule?
Answer: Not Active

Question: What about the Ki [3] of the same molecule?
Answer: Not Active

Question: And the IC50 [4]?
Answer: Not Active

Question: What about the IC50 [5] of the same molecule?
Answer: Not Active

Question: What about the IC50 [6] of the same molecule?
Answer: Not Active

Question: And the IC50 (Cytochrome P450 2C19)?
Answer: Not Active

Question: And the Ki (Cytochrome P450 2C19)?
Answer: Not Active

From ChEMBL document CHEMBL1909046, “DrugMatrix in vitro pharmacology data”
